Laboratory results published in patent publication US10781204B2, “TYK2 inhibitors and uses thereof” (Nimbus Lakshmi, Inc., priority 2015, dated 2020).

Tests used:
[1] = test system: JAK2-pSTAT5 (GM-CSF induced pSTAT5); assay: GM-CSF induced pSTAT5 in human PBMC; assay type: cell-based; conditions: 5 ng/mL GM-CSF
How it was run: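 Thawed human PBMC, 200,000 per well in serum-containing medium, were preincubated 1 hr at 37 C with compound in 0.1% DMSO. GM-CSF at 5 ng/mL final was added for 20 minutes, then pSTAT5 and total STAT5 in lysates were measured by MSD immunoassay.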

TYK2 = TYK2 (Homo sapiens (Human), UniProt P29597); assay: Tyk2 radioactive kinase assay; assay type: biochemical; conditions: ATP 10 μM
How it was run: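 Recombinant human TYK2 (Invitrogen) was mixed with 20 μM peptide substrate in a buffer of 20 mM Hepes pH 7.5, 10 mM MgCl2, 1 mM EGTA, 0.02% Brij35, 0.02 mg/mL BSA, 0.1 mM […], 2 mM DTT and 1% DMSO, and compounds in DMSO were added. Adding ^33P-ATP (10 μM ATP) started the reaction, which ran 120 min at room temperature. Mixtures were then spotted onto P81 ion-exchange paper, washed thoroughly in 0.75% phosphoric acid, and counted for radioactivity.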

JAK2 = JAK2 (Homo sapiens (Human), UniProt O60674); assay: JAK2 radioactive kinase assay; assay type: biochemical; conditions: ATP 10 μM
How it was run: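 Radiometric assay in Hepes pH 7.5, MgCl2, EGTA, Brij35, BSA, DTT, 1% DMSO, with 10 μM [33P]ATP, 120 min at room temp; P81 paper capture and counting. […]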

[2] = test system: Tyk2-pSTAT4 (IL-12 induced pSTAT4); assay: IL-12 induced pSTAT4 in human PBMC; assay type: cell-based; conditions: 1.7 ng/mL IL-12, 30 minutes
How it was run: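 Thawed human PBMC (200,000 cells/well, serum-containing medium) preincubated with compound 1 hr at 37 C, 0.1% DMSO final. Stimulated with 1.7 ng/mL IL-12 (final) for 30 minutes; pSTAT4 and total STAT4 in lysates measured by MSD immunoassay.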

Chain of JAK2 (O60674 whole entry): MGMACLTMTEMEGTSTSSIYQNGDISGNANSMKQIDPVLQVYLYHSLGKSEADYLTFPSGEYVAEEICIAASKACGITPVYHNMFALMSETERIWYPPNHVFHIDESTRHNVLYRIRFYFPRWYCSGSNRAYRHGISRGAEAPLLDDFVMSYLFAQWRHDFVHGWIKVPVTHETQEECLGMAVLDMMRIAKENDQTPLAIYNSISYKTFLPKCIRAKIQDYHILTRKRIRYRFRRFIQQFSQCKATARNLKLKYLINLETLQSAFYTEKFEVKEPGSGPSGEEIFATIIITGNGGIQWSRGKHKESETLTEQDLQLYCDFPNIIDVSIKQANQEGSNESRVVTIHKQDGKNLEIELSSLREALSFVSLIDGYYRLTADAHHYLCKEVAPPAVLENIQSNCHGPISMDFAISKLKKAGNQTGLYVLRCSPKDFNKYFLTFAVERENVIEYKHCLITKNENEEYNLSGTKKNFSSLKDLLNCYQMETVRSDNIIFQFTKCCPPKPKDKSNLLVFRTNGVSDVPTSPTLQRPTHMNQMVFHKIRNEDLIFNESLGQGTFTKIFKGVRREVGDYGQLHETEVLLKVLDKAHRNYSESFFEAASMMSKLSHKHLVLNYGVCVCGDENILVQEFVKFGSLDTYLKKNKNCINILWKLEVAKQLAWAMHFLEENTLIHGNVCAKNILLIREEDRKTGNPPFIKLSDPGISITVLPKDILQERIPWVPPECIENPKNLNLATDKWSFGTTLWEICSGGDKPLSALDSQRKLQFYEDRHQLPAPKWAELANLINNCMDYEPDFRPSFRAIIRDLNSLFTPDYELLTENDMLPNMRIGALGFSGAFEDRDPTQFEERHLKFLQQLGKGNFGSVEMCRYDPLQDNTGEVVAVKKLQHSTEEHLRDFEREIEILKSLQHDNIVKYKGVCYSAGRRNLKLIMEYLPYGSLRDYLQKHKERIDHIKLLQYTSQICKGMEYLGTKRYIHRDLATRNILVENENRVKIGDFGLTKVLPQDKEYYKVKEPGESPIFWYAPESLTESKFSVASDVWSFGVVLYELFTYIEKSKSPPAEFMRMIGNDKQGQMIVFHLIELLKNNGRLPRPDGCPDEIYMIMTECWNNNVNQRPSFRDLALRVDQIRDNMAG
Chain of TYK2 (P29597 whole entry): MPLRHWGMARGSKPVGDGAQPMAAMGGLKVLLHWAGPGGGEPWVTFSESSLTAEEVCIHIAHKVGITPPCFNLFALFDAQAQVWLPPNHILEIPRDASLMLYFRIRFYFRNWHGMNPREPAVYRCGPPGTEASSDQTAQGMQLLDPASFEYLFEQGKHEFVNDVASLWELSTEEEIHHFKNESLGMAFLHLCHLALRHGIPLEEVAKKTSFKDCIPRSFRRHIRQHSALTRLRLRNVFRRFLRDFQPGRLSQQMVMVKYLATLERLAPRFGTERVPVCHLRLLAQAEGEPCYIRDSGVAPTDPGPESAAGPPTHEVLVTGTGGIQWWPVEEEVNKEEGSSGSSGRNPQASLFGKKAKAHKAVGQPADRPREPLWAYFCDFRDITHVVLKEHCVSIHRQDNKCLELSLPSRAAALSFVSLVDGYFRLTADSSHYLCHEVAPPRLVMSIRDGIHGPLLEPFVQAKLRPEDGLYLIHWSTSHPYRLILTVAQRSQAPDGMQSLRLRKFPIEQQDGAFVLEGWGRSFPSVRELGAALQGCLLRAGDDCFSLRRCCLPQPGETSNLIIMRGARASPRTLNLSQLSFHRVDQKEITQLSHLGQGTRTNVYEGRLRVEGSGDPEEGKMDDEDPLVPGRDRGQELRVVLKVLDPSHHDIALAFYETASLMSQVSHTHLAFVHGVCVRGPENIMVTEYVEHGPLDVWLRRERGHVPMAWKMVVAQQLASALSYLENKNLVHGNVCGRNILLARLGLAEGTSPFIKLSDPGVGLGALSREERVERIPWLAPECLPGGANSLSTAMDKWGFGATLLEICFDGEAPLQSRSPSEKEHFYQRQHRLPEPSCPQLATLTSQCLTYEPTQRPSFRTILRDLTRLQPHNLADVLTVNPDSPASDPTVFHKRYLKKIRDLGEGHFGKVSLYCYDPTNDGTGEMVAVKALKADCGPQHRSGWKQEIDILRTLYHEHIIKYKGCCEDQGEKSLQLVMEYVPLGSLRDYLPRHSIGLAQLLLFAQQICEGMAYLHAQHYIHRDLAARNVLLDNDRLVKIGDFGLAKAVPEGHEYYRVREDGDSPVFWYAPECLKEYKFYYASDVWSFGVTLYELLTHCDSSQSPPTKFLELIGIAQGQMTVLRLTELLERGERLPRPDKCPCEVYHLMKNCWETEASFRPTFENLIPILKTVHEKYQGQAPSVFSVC

EC50 ([1]; Homo sapiens, PBMC, 20 min)	Ki (TYK2)	Ki (JAK2)	EC50 ([2]; Homo sapiens, PBMC, 0.5 h)	EC50 ([1]; 20 minutes)	EC50 [2]	Compound
100 to 2000 nM	0.1 to 10 nM	10 to 100 nM	100 to 2000 nM	–	–	CO[C@H]1CN(c2ccn(-c3cc(-c4c(F)cccc4C#N)nc4c3C(=O)NC4)n2)CC[C@H]1OC [I-176, 2-(4-(3-((3S,4R)-3,4-dimethoxypiperidin-1-yl)-1H-pyrazol-1-yl)-5-oxo-6,7-dihydro-5H-pyrrolo[3,4-b]pyridin-2-yl)-3-fluorobenzonitrile]
100 to 2000 nM	≥ 1000 nM	≥ 1000 nM	> 2000 nM	–	–	CC(=O)Nc1cnn(-c2cc(-c3c(F)cccc3C#N)nc3c2C(=O)NC3)c1 [I-177, N-(1-(2-(2-cyano-6-fluorophenyl)-5-oxo-6,7-dihydro-5H-pyrrolo[3,4-b]pyridin-4-yl)-1H-pyrazol-4-yl)acetamide]
> 2000 nM	0.1 to 10 nM	10 to 100 nM	100 to 2000 nM	–	–	N#Cc1cccc(F)c1-c1cc(-n2ccc(N3CCC[C@H](O)[C@H](O)C3)n2)c2c(n1)CNC2=O [I-178, 2-(4-(3-((3R,4S)-3,4-dihydroxyazepan-1-yl)-1H-pyrazol-1-yl)-5-oxo-6,7-dihydro-5H-pyrrolo[3,4-b]pyridin-2-yl)-3-fluorobenzonitrile]
> 2000 nM	0.1 to 10 nM	10 to 100 nM	30 to 100 nM	–	–	N#Cc1cccc(F)c1-c1cc(-n2ccc(N3CCC[C@@H](O)[C@@H](O)C3)n2)c2c(n1)CNC2=O [I-179, 2-(4-(3-((3S,4R)-3,4-dihydroxyazepan-1-yl)-1H-pyrazol-1-yl)-5-oxo-6,7-dihydro-5H-pyrrolo[3,4-b]pyridin-2-yl)-3-fluorobenzonitrile]
100 to 2000 nM	0.1 to 10 nM	10 to 100 nM	100 to 2000 nM	–	–	CO[C@H]1CN(c2ccn(-c3cc(-c4c(F)cccc4C#N)nc4c3C(=O)NC4)n2)CC[C@H]1O [I-181, 3-fluoro-2-(4-(3-((3S,4R)-4-hydroxy-3-methoxypiperidin-1-yl)-1H-pyrazol-1-yl)-5-oxo-6,7-dihydro-5H-pyrrolo[3,4-b]pyridin-2-yl)benzonitrile]
100 to 2000 nM	0.1 to 10 nM	0.1 to 10 nM	30 to 100 nM	–	–	[2H]C1([2H])C[C@@](O)(C([2H])([2H])[2H])C([2H])([2H])N1c1ccn(-c2cc(-c3c(F)cccc3C#N)nc3c2C(=O)NC3)n1 [I-183, (S)-3-fluoro-2-(4-(3-(3-hydroxy-3-(methyl-d3)pyrrolidin-1-yl-2,2,5,5-d4)-1H-pyrazol-1-yl)-5-oxo-6,7-dihydro-5H-pyrrolo[3,4-b]pyridin-2-yl)benzonitrile]
100 to 2000 nM	0.1 to 10 nM	0.1 to 10 nM	30 to 100 nM	–	–	[2H]C1([2H])C[C@](O)(C([2H])([2H])[2H])C([2H])([2H])N1c1ccn(-c2cc(-c3c(F)cccc3C#N)nc3c2C(=O)NC3)n1 [I-184, (R)-3-fluoro-2-(4-(3-(3-hydroxy-3-(methyl-d3)pyrrolidin-1-yl-2,2,5,5-d4)-1H-pyrazol-1-yl)-5-oxo-6,7-dihydro-5H-pyrrolo[3,4-b]pyridin-2-yl)benzonitrile]
100 to 2000 nM	0.1 to 10 nM	10 to 100 nM	100 to 2000 nM	–	–	N#Cc1cccc(F)c1-c1cc(-n2cc(F)c(N3CCC(O)C3)n2)c2c(n1)CNC2=O (centres unmarked) [I-185, 3-fluoro-2-(4-(4-fluoro-3-(3-hydroxypyrrolidin-1-yl)-1H-pyrazol-1-yl)-5-oxo-6,7-dihydro-5H-pyrrolo[3,4-b]pyridin-2-yl)benzonitrile]
> 2000 nM	0.1 to 10 nM	10 to 100 nM	100 to 2000 nM	–	–	[2H]C1([2H])N(c2ccn(-c3cc(-c4c(F)cccc4C#N)nc4c3C(=O)NC4)n2)C([2H])([2H])C(C)(O)C([2H])([2H])C1([2H])[2H] (centres unmarked) [I-186, 3-fluoro-2-(4-(3-(3-hydroxy-3-methylpiperidin-1-yl-2,2,4,4,5,5,6,6-d8)-1H-pyrazol-1-yl)-5-oxo-6,7-dihydro-5H-pyrrolo[3,4-b]pyridin-2-yl)benzonitrile]
100 to 2000 nM	0.009 to 0.1 nM	0.1 to 10 nM	100 to 2000 nM	–	–	N#Cc1cccc(F)c1-c1cc(-n2ccc(N3C[C@H]4CC[C@@H](C3)O4)n2)c2c(n1)CNC2=O [I-188, 2-(4-(3-((1R,5S)-8-oxa-3-azabicyclo[3.2.1]octan-3-yl)-1H-pyrazol-1-yl)-5-oxo-6,7-dihydro-5H-pyrrolo[3,4-b]pyridin-2-yl)-3-fluorobenzonitrile]
> 2000 nM	0.1 to 10 nM	10 to 100 nM	100 to 2000 nM	–	–	N#Cc1cccc(F)c1-c1cc(-n2cc(F)c(N3CC[C@@H](O)C3)n2)c2c(n1)CNC2=O [I-189, (R)-3-fluoro-2-(4-(4-fluoro-3-(3-hydroxypyrrolidin-1-yl)-1H-pyrazol-1-yl)-5-oxo-6,7-dihydro-5H-pyrrolo[3,4-b]pyridin-2-yl)benzonitrile]
100 to 2000 nM	0.1 to 10 nM	10 to 100 nM	100 to 2000 nM	–	–	N#Cc1cccc(F)c1-c1cc(-n2cc(F)c(N3CC[C@H](O)C3)n2)c2c(n1)CNC2=O [I-190, (S)-3-fluoro-2-(4-(4-fluoro-3-(3-hydroxypyrrolidin-1-yl)-1H-pyrazol-1-yl)-5-oxo-6,7-dihydro-5H-pyrrolo[3,4-b]pyridin-2-yl)benzonitrile]
100 to 2000 nM	0.1 to 10 nM	0.1 to 10 nM	100 to 2000 nM	–	–	N#Cc1cccc(F)c1-c1cc(-n2ccc(N3CCC(O)(C(=O)N4CCCC4)C3)n2)c2c(n1)CNC2=O (centres unmarked) [I-191, 3-fluoro-2-(4-(3-(3-hydroxy-3-(pyrrolidine-1-carbonyl)-pyrrolidin-1-yl)-1H-pyrazol-1-yl)-5-oxo-6,7-dihydro-5H-pyrrolo[3,4-b]pyridin-2-yl)benzonitrile]
> 2000 nM	0.1 to 10 nM	0.1 to 10 nM	100 to 2000 nM	–	–	CO[C@@H]1CCN(c2ccn(-c3cc(-c4c(F)cccc4C#N)nc4c3C(=O)NC4)n2)C[C@H]1O [I-193, 3-fluoro-2-(4-(3-((3R,4R)-3-hydroxy-4-methoxypiperidin-1-yl)-1H-pyrazol-1-yl)-5-oxo-6,7-dihydro-5H-pyrrolo[3,4-b]pyridin-2-yl)benzonitrile]
100 to 2000 nM	0.1 to 10 nM	0.1 to 10 nM	30 to 100 nM	–	–	CO[C@@H]1CN(c2ccn(-c3cc(-c4c(F)cccc4C#N)nc4c3C(=O)NC4)n2)CC[C@H]1O [I-195, 3-fluoro-2-(4-(3-((3R,4R)-4-hydroxy-3-methoxypiperidin-1-yl)-1H-pyrazol-1-yl)-5-oxo-6,7-dihydro-5H-pyrrolo[3,4-b]pyridin-2-yl)benzonitrile]
100 to 2000 nM	0.1 to 10 nM	0.1 to 10 nM	30 to 100 nM	–	–	[2H]C([2H])([2H])C1(O)C([2H])([2H])N(c2ccn(-c3cc(-c4c(F)cccc4C#N)nc4c3C(=O)NC4)n2)C([2H])([2H])C1([2H])[2H] (centres unmarked) [I-196, 3-fluoro-2-(4-(3-(3-hydroxy-3-(methyl-d3)pyrrolidin-1-yl-2,2,4,4,5,5-d6)-1H-pyrazol-1-yl)-5-oxo-6,7-dihydro-5H-pyrrolo[3,4-b]pyridin-2-yl)benzonitrile]
> 2000 nM	0.1 to 10 nM	10 to 100 nM	100 to 2000 nM	–	–	N#Cc1cccc(F)c1-c1cc(-n2ccc(N3CC[C@](O)(C(=O)N4CCCC4)C3)n2)c2c(n1)CNC2=O [I-198, (R)-3-fluoro-2-(4-(3-(3-hydroxy-3-(pyrrolidine-1-carbonyl)-pyrrolidin-1-yl)-1H-pyrazol-1-yl)-5-oxo-6,7-dihydro-5H-pyrrolo[3,4-b]pyridin-2-yl)benzonitrile]
100 to 2000 nM	0.1 to 10 nM	10 to 100 nM	30 to 100 nM	–	–	[2H]C1([2H])NC(=O)c2c(-n3ccc(N4C([2H])([2H])CC(O)(C([2H])([2H])[2H])C4([2H])[2H])n3)cc(-c3c(F)cccc3C#N)nc21 (centres unmarked) [I-200, 3-fluoro-2-(4-(3-(3-hydroxy-3-(methyl-d3)pyrrolidin-1-yl-2,2,5,5-d4)-1H-pyrazol-1-yl)-5-oxo-6,7-dihydro-5H-pyrrolo[3,4-b]pyridin-2-yl-7,7-d2)benzonitrile]
–	0.1 to 10 nM	10 to 100 nM	–	100 to 2000 nM	30 to 100 nM	CO[C@@H]1CN(c2ccn(-c3cc(-c4c(F)cccc4C#N)nc4c3C(=O)NC4)n2)CC[C@H]1O [I-201, 3-fluoro-2-(4-(3-((3R,4R)-4-hydroxy-3-methoxypiperidin-1-yl)-1H-pyrazol-1-yl)-5-oxo-6,7-dihydro-5H-pyrrolo[3,4-b]pyridin-2-yl)benzonitrile]
100 to 2000 nM	0.1 to 10 nM	10 to 100 nM	30 to 100 nM	–	–	CO[C@H]1CN(c2ccn(-c3cc(-c4c(F)cccc4C#N)nc4c3C(=O)NC4)n2)CC[C@@H]1O [I-202, 3-fluoro-2-(4-(3-((3S,4S)-4-hydroxy-3-methoxypiperidin-1-yl)-1H-pyrazol-1-yl)-5-oxo-6,7-dihydro-5H-pyrrolo[3,4-b]pyridin-2-yl)benzonitrile]
